Where two headings read alike, the source gives them in different places.
Columns and labels:
HIV-1 (H9/IIIB strain) = assay: Multiple round HIV-1 infection assay (Viking assay) in MT4-GFP cells; type: cell-based; conditions: MT4-GFP cells infected with HIV-1 H9/IIIB, inhibition of reproductive ratio R0
Method in brief: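 MT4-gag-GFP cells infected overnight with HIV-1 H9/IIIB at MOI ~0.01, then incubated with compound (10-point 3-fold dilutions, typically 8.4 μM–0.42 nM) in RPMI with 10% or 50% normal human serum. Green cells counted at ~48 and ~72 h; IC50 from inhibition of reproductive ratio R0, 4-parameter fit.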

[1] = Prodrug stability assay in bio-relevant media (FaSSIF with Pancreatin, simulated gastrointestinal tract conditions); type: in vitro ADME; conditions: % parent prodrug remaining at 5 h vs 0 h, 37° C., 0.5 mg/mL Pancreatin in FaSSIF, HPLC area ratio
Experimental: Prodrug Stability Assay in Bio-Relevant Media
The following assay was employed to evaluate the stability of the prodrugs in simulated gastrointestinal tract conditions. Preparation of fasted state simulated intestinal fluid (FaSSIF) using Phares SIF Powder was carried out according to protocols from Phare Drug Delivery AG (Baselland, Switzerland). For sample preparation, 10 μL stock solutions (10 mM) of prodrug substance in DMSO was added to 990 μL of 0.5 mg/mL Pancreatin solution (Fisher CAS#8049-47-6) in FaSSIF. Two samples were prepared for each compound at initial. If the sample was clear solution at the beginning, ran one sample directly as initial by HPLC; if the sample was not clear at starting, diluted the sample by 100% ACN. Put the other sample under 37° C. and observed the sample at 5 h time-point. At 5 h time point, if the sample was clear solution then performed HPLC analysis directly; if it was not clear solution, diluted the sample by 100% ACN and assayed by HPLC. All the samples were vortexed for 3 min and observed before injection. For the diluted samples, the area will be multiplied by a factor when data analysis. The analysis was carried out with an Agilent 1100 series HPLC with autosampler. The column was usually a Poroshell 120 EC -C18, 4.6×50 mm, 2.7 μm. The flow rate was 1.8 mL/min, and the injection volume was 5 or 10 μL. UV detection was in the range 210-400 nm. The mobile phase consisted of solvent A (water plus 10 mM tetrabutylammonium bromide) and solvent B (acetonitrile) with a gradient of 90% solvent A at 0 min changing to 95% solvent B over 6 min, maintained for 1.5 min, then reverting to 90% solvent A over 1.6 min. The area of the parent in prodrug at 5h time point was divided by the area of the parent in prodrug at 0 h time point, to generate the % claimed parent ratio, which are summarized in Table 2 for GI Tract stability.

[2] = Human immunodeficiency virus 1, IIIB, 10% normal human serum, read-out: Viking, IC50 (10% NHS)
[3] = Human immunodeficiency virus 1, IIIB, 50% normal human serum, read-out: Viking, IC50 (50% NHS)

For CC(C)OC(=O)COP(=O)(CO[C@H](C)Cn1cnc2c(N)ncnc21)NC(C)(C)C(=O)OC1CCC1 (single isomer, unassigned) [Example 17B], the IC50 (HIV-1 (H9/IIIB strain); 10% normal human serum, read-out: Viking, IC50 (10% NHS)) was 6.7 nM, the IC50 (HIV-1 (H9/IIIB strain); 50% normal human serum, read-out: Viking, IC50 (50% NHS)) was 18.4 nM and the “GI Tract stability” value [1] was 99.32%.

In the case of CC(C)OC(=O)COP(=O)(CO[C@H](C)Cn1cnc2c(N)ncnc21)NC1(C(=O)OC(C)C)CCC1 (stereo partly drawn) [Example 49, Isopropyl 1-((((((R)-1-(6-amino-9H-purin-9-yl)propan-2-yl)oxy)methyl)(2-isopropoxy-2-oxoethoxy)phosphoryl)amino) cyclobutane-1-carboxylate], the IC50 (HIV-1 (H9/IIIB strain); [2]) is reported as 19.6 nM, the IC50 (HIV-1 (H9/IIIB strain); [3]) is reported as 37 nM and the “GI Tract stability” value [1] is reported as 100.50%.

With CC(C)OC(=O)COP(=O)(CO[C@H](C)Cn1cnc2c(N)ncnc21)NC1(C(=O)OC(C)C)CCCC1 (stereo partly drawn) [Example 45, Isopropyl 1-((((((R)-1-(6-amino-9H-purin-9-yl)propan-2-yl)oxy)methyl)(2-isopropoxy-2-oxoethoxy)phosphoryl)amino) cyclopentane-1-carboxylate] the IC50 (HIV-1 (H9/IIIB strain); [2]) was 15.6 nM, the IC50 (HIV-1 (H9/IIIB strain); [3]) was 62.6 nM and the “GI Tract stability” value [1] was 99.44%.

Reference: patent US10449208B2, “Antiviral prodrugs of tenofovir” (Merck Sharp & Dohme Corp., priority 2016, dated 2019)
